“Also recorded” adds a separate entry of the source.
Tests used:
PDE 5 [1] = target: T1, PDE 5 (Homo sapiens, UniProt O76074); experiment: PDE 5 inhibitory activity; format: biochemical; settings: target not stated at the place; PDE 5 from context
[2] = Incubation of Compound A with pooled human liver microsomes and NADPH-generating system; format: in vitro ADME
Experimental: (§1) Compound C was prepared via a biotransformation from Compound A. In vitro incubations of Compound A (1, 5 and 50 μM) were performed with pooled human liver microsomes and CYP3A4 SUPERSOMES®. This radiolabel allowed tracking of all the metabolites of Compound A. For this procedure, Compound A was synthesized by inserting a ^14C in the 4 position as indicated in the ring member numbering scheme below.
(§2) Incubation mixtures contained cytochrome P450 (1 nmol/mL for human liver microsomes or 0.2 nmol/mL for CYP3A4), β-NADP^+ (1 mM), glucose-6-phosphate (5 mM), glucose-6-phosphate dehydrogenase (1.5 units/mL) and 3 mM magnesium chloride in 0.5 mL of 50 mM potassium phosphate buffer (pH 7.4). Prior to the addition of drug, incubation mixtures were pre-incubated for 3 min at about 37° C. […] Boiled human liver microsomes and incubations without NADPH served as negative control. […]
(§3) Radiometric profiles of metabolites following 120 min incubation of Compound A (50 μM) with CYP3A4, Human Liver Microsomes, and Insect Microsomes, all with a NADPH-generating system, are shown in FIGS. 1, 2, and 3, respectively. In these figures, the y-axis reflects radioactivity of the eluted species and has units of counts per minute, while the x-axis reflects time of elution and has units of minutes. […] Mass-to-charge ratios are measured by mass spectrometry.

CYP3A4 = target: T2, CYP3A4 (Homo sapiens, UniProt P08684); experiment: Incubation of Compound A with CYP3A4 SUPERSOMES and NADPH-generating system; format: in vitro ADME
T2 construct: purchased; host or cells: An insect cell host is inferred from the 'Insect Microsomes' control
Experimental: as §1, §2, §3

[3] = Circulating metabolites after single oral administration of Compound A to humans; format: in vivo; settings: single administration of Compound A 100 mg PO
[4] = Incubation of Compound A with Control Insect Microsomes and NADPH-generating system; format: in vitro ADME; settings: Compound A 50 μM, 120 min, Control Insect Microsomes, FIG. 3
Experimental: Incubation mixtures contained cytochrome P450 (1 nmol/mL for human liver microsomes or 0.2 nmol/mL for CYP3A4), β-NADP^+ (1 mM), glucose-6-phosphate (5 mM), glucose-6-phosphate dehydrogenase (1.5 units/mL) and 3 mM magnesium chloride in 0.5 mL of 50 mM potassium phosphate buffer (pH 7.4). Prior to the addition of drug, incubation mixtures were pre-incubated for 3 min at about 37° C. […] Boiled human liver microsomes and incubations without NADPH served as negative control. A discussion of HPLC is provided in “HPLC in Pharmaceutical Analysis,” vol. I, G. Szepesi (1990). A discussion of mass spectrometry is provided in “Remington: The Science and Practice of Pharmacy,” 20th Ed., D. Limmer, ed., pp. 636-639 (2000).
Radiometric profiles of metabolites following 120 min incubation of Compound A (50 μM) with CYP3A4, Human Liver Microsomes, and Insect Microsomes, all with a NADPH-generating system, are shown in FIGS. 1, 2, and 3, respectively. In these figures, the y-axis reflects radioactivity of the eluted species and has units of counts per minute, while the x-axis reflects time of elution and has units of minutes. Each peak represents one or more compounds, and each of the more significant peaks is labeled with the mass-to-charge ratio value (m/z) of that compound. Mass-to-charge ratios are measured by mass spectrometry.

PDE 5 [5] = target: T1, PDE 5; settings: disclosed in U.S. Ser. No. 09/940,760; cited from earlier work

T2 sequence (P08684 whole entry): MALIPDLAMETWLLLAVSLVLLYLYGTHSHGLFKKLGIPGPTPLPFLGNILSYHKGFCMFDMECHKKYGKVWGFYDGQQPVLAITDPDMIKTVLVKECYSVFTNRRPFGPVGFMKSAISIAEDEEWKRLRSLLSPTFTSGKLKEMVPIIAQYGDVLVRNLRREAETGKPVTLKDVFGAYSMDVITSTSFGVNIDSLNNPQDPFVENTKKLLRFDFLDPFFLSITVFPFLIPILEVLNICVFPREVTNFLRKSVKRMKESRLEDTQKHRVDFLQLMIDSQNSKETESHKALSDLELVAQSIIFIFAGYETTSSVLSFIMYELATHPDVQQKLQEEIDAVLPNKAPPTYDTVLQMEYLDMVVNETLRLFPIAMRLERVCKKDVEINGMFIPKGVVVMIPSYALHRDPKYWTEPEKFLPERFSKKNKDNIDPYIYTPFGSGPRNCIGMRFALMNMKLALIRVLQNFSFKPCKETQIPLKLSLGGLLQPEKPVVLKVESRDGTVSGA

Structure (SMILES)	IC50 (PDE 5 [1]) [nM]	metabolite formed from Compound A (radiometric profile) ([2]; Compound A 50 μM, 120 min, Human Liver Microsomes, FIG. 2)	metabolite formed from Compound A (radiometric profile) (CYP3A4; Compound A 50 μM, 120 min, CYP3A4, FIG. 1)	circulating metabolite in human [3]	extent of metabolism ([2]; 1, 5 and 50 μM, human liver microsomes 1 nmol/mL, NADPH-generating system)	activity with respect to the formation of Compound C (CYP3A4; 50 μM Compound A, cDNA-expressed CYP3A4)	metabolite formation [4]	PDE 5 inhibitory activity (PDE 5 [5])
CCn1c(=O)c2c(nc(N)n2Cc2ccc(OC)c(Br)c2)n(CCO)c1=O [Compound C, 8-Amino-7-[(3-Bromo-4-Methoxyphenyl)Methyl]-1-Ethyl-3,7-Dihydro-3-(2-Hydroxyethyl)-1H-Purine-2,6-Dione]	71	significant metabolite	significant metabolite	one of the major circulating metabolites; also recorded: prominent circulating metabolite				
CCn1c(=O)c2c(nc(N[C@@H]3CCC[C@H]3O)n2Cc2ccc(OC)c(Br)c2)n(CCO)c1=O [Compound A]					metabolized extensively	exhibited the greatest activity	no major metabolite formation was observed	having PDE 5 inhibitory activity

Source: patent publication US7312223B2, “Metabolite of xanthine Phosphodiesterase 5 inhibitor and derivatives thereof useful for treatment of erectile dysfunction” (Schering Corporation, priority 2003, dated 2007)
